Assay results published in ChEMBL document CHEMBL4483862, “Open-source discovery of chemical leads for next-generation chemoprotective antimalarials” (2018).

System: Plasmodium berghei
Assay: Luciferase/luciferin-expressing antifolate-resistant parasites were used to infect a culture of HepG2 cells that were pre-incubated with compounds. Infected hepatocytes emit light due to the luciferase reaction. Assay results are presented as the percent inhibition of light emission compared to control. […]
Type: functional
Settings: sporozoite; for IC90: read-out: LUCIFERASE INFECTION ASSAY - IC90
[1] = read-out: LUCIFERASE INFECTION ASSAY - IC50

Cc1ccc2nc(NC(=O)c3cccc(Cl)c3)c(C(=O)NC3CCCC3)n2c1
IC50 (FFLUC_HILL_SLOPE 23.2, FFLUC_R_SQUARED 0.442, HEPG2TOX_HILL_SLOPE 1.26, HEPG2TOX_R_SQUARED 0.897, PBLUC_HILL_SLOPE 7.29, PBLUC_R_SQUARED 0.437, read-out: LUCIFERASE INFECTION ASSAY - IC50): 1.09 µM | IC90: 1.47 µM

COCCn1c(C(=O)OC)c(NC(=O)c2ccco2)c2cc(NCC(C)c3ccccc3)cnc21 (centres undefined)
IC50 (PBLUC_HILL_SLOPE 27.9, PBLUC_R_SQUARED 0.298, read-out: LUCIFERASE INFECTION ASSAY - IC50): 6.65 µM | IC90: > 6.93 µM

COc1ccc(-c2nc(C(=O)Nc3ccccc3N3CCN(C)CC3)cs2)cc1OC
IC50 (PBLUC_HILL_SLOPE 1.24, PBLUC_R_SQUARED 0.639, read-out: LUCIFERASE INFECTION ASSAY - IC50): 2.33 µM | IC90: > 10 µM

Cn1c(-c2c(-c3ccccc3)n[nH]c2-c2ccccc2O)nc2ccccc21
IC50 (FFLUC_HILL_SLOPE 1.64, FFLUC_R_SQUARED 0.277, read-out: LUCIFERASE INFECTION ASSAY - IC50): > 10 µM | IC90: > 10 µM

O=C(Nc1nonc1-c1cccs1)c1sc2cccc(Cl)c2c1Cl
IC50 [1]: 3.26 µM | IC90: 4.63 µM

COc1ccc(-c2cnc3cnc(-c4cccc(NC(C)=O)c4)cn23)cc1
IC50 (PBLUC_HILL_SLOPE 2.77, PBLUC_R_SQUARED 0.737, read-out: LUCIFERASE INFECTION ASSAY - IC50): 4.22 µM | IC90: > 9.21 µM

CC(C)(C)c1cc(C(=O)Nc2ccc(Cl)cc2)n(Cc2ccccc2)n1
IC50 (PBLUC_HILL_SLOPE 1.52, PBLUC_R_SQUARED 0.257, read-out: LUCIFERASE INFECTION ASSAY - IC50): 6.98 µM | IC90: > 8.97 µM

Cn1c(S)nnc1-c1ccc(C(C)(C)C)cc1
IC50 [1]: > 13.3 µM | IC90: > 13.3 µM

O=S(=O)(c1ccccc1)c1ccc(S(=O)(=O)N2CCCC2)s1
IC50 [1]: > 9.23 µM | IC90: > 9.23 µM

CCOC(=O)c1c(NC(=O)CSc2nnc(N)[nH]2)sc(Br)c1-c1ccccc1
IC50 [1]: 6.28 µM | IC90: > 10 µM

O=C(CSc1nnc(Nc2ccc(SC(F)F)cc2)s1)c1cccs1
IC50 (FFLUC_HILL_SLOPE 26.5, FFLUC_R_SQUARED 0.442, read-out: LUCIFERASE INFECTION ASSAY - IC50): > 10 µM | IC90: > 10 µM

Cc1[nH]c(-c2ccccn2)nc(=O)c1CC(=O)OCc1nc2ccccc2s1
IC50 (PBLUC_HILL_SLOPE 1.8, PBLUC_R_SQUARED 0.582, read-out: LUCIFERASE INFECTION ASSAY - IC50): 7.29 µM | IC90: > 10 µM

O=C(COc1ccccc1SCc1ccc(Cl)cc1)NNC(=O)c1ccc(Cl)cc1
IC50 [1]: > 7.15 µM | IC90: > 7.15 µM

Cc1nn(-c2ccccc2)c2nc(-c3cccs3)cc(C(=O)N3CCc4ccccc43)c12
IC50 (FFLUC_HILL_SLOPE 2.26, FFLUC_R_SQUARED 0.632, PBLUC_HILL_SLOPE 0.862, PBLUC_R_SQUARED 0.727, read-out: LUCIFERASE INFECTION ASSAY - IC50): 4.63 µM | IC90: > 10 µM

C=CCn1c(SCc2c(C)noc2C)nc2scc(C3CC3)c2c1=O
IC50 (HEPG2TOX_HILL_SLOPE 0.626, HEPG2TOX_R_SQUARED 0.778, PBLUC_HILL_SLOPE 13, PBLUC_R_SQUARED 0.397, read-out: LUCIFERASE INFECTION ASSAY - IC50): 0.0439 µM | IC90: 0.0519 µM

Cc1ccc(N2C(=O)C=CC2=O)cc1C
IC50 [1]: 6.57 µM | IC90: 12.2 µM

COc1cc(-c2cccc(Nc3cccc(OC(F)(F)C(F)F)c3)n2)cc(OC)c1OC
IC50 [1]: > 7.29 µM | IC90: > 7.29 µM

CC(C)CN(CC(C)C)CC(O)COc1ccccc1 (centres undefined)
IC50 [1]: > 11.8 µM | IC90: > 11.8 µM

Cc1cc2oc(C(=O)Nc3nonc3-c3ccc(F)cc3)c(C)c2cc1Cl
IC50 [1]: > 8.55 µM | IC90: > 8.55 µM

O=C(Nc1ccc(Cl)cc1)n1ccc(/C=C/c2ncc(C(F)(F)F)cc2Cl)n1
IC50 (HEPG2TOX_HILL_SLOPE 28.5, HEPG2TOX_R_SQUARED 0.883, PBLUC_HILL_SLOPE 15.5, PBLUC_R_SQUARED 0.352, read-out: LUCIFERASE INFECTION ASSAY - IC50): 7.23 µM | IC90: > 7.72 µM

O=C1COc2ccc(-c3cs/c(=N\c4ccc(OC(F)F)cc4)n3Cc3ccco3)cc2N1
IC50 [1]: > 10 µM | IC90: > 10 µM

CN(C)C(CNC(=O)c1ccc(COc2ccccc2)cc1)Cc1ccccc1 (centres undefined)
IC50 (PBLUC_HILL_SLOPE 1.49, PBLUC_R_SQUARED 0.218, read-out: LUCIFERASE INFECTION ASSAY - IC50): 7.64 µM | IC90: > 10 µM

NC1=CC(=O)c2ccccc2C1=O
IC50 (PBLUC_HILL_SLOPE 2.49, PBLUC_R_SQUARED 0.187, read-out: LUCIFERASE INFECTION ASSAY - IC50): 12 µM | IC90: > 19.1 µM

C=CCNC(=O)CSC1=CC(=O)CC(c2ccc(Cl)cc2)S1 (centres undefined)
IC50 [1]: > 9.32 µM | IC90: > 9.32 µM

COc1cc(Nc2ncc3c(n2)CCN(C(=O)Nc2ccc(F)c(Cl)c2)C3)cc(OC)c1OC
IC50 (HEPG2TOX_HILL_SLOPE 3.56, HEPG2TOX_R_SQUARED 0.576, PBLUC_HILL_SLOPE 6.46, PBLUC_R_SQUARED 0.101, read-out: LUCIFERASE INFECTION ASSAY - IC50): 5.03 µM | IC90: > 6.76 µM

O=C(NCc1cc(Cl)cc(Cl)c1)c1cc(C(F)(F)F)cc(C(F)(F)F)c1
IC50 [1]: > 7.93 µM | IC90: > 7.93 µM

CN(C)c1cccc(-c2cnc3sc(NCCCO)nn23)c1
IC50 [1]: > 10.4 µM | IC90: > 10.4 µM

Cc1cc(C)c(N/C=C2/C(=O)N(c3ccccc3Cl)C(=O)c3ccccc32)c(C)c1
IC50 [1]: > 10 µM | IC90: > 10 µM

COc1cc(OC)c(C2Nc3cc(Cl)c(S(N)(=O)=O)cc3S(=O)(=O)N2)cc1OC (centres undefined)
IC50 [1]: > 10 µM | IC90: > 10 µM

O=C(Nc1ccc(-c2nc3ccccc3[nH]2)cc1)c1cccc(S(=O)(=O)NC2CC2)c1
IC50 (HEPG2TOX_HILL_SLOPE 2.58, HEPG2TOX_R_SQUARED 0.64, PBLUC_HILL_SLOPE 5.30, 5.83, PBLUC_R_SQUARED 0.508, 0.438, read-out: LUCIFERASE INFECTION ASSAY - IC50): 2.03 µM | IC90: 3 µM

CCOc1ccc(C(C)=O)cc1CSc1nc2scc(-c3ccccc3)c2c(=O)n1C
IC50 (PBLUC_HILL_SLOPE 1.32, PBLUC_R_SQUARED 0.21, read-out: LUCIFERASE INFECTION ASSAY - IC50): > 10 µM | IC90: > 10 µM

CCCCC1(c2ccccc2)NC(=O)N(CC(=O)Nc2ccc(C#N)c(Cl)c2)C1=O (centres undefined)
IC50 [1]: > 10 µM | IC90: > 10 µM

CCCCNC(=O)c1c(NC(=O)c2cccc(F)c2F)nc2ccccn12
IC50 [1]: > 8.86 µM | IC90: > 8.86 µM

CCC(C)(C)c1ccc(Oc2ccc(NC(=O)COC(=O)c3ccc(Cl)c(S(N)(=O)=O)c3)cc2)cc1
IC50 (PBLUC_HILL_SLOPE 2.55, PBLUC_R_SQUARED 0.138, read-out: LUCIFERASE INFECTION ASSAY - IC50): 5.78 µM | IC90: > 10 µM

Cc1c(C2=CCCCC2)c2ccccn2c1C(=O)c1cc2c(C)nn(-c3ccccc3)c2s1
IC50 [1]: > 10 µM | IC90: > 10 µM

O=C(Nc1cccc(C(F)(F)F)c1)Nc1ccc2nc(-c3ccco3)nn2c1
IC50 (FFLUC_HILL_SLOPE 40.8, FFLUC_R_SQUARED 0.195, PBLUC_HILL_SLOPE 31.8, PBLUC_R_SQUARED 0.106, read-out: LUCIFERASE INFECTION ASSAY - IC50): 9.83 µM | IC90: > 10 µM

COc1ccc(Cl)cc1COC(=O)COc1ccc2c(c1)CCC(=O)N2
IC50 (PBLUC_HILL_SLOPE 0.441, PBLUC_R_SQUARED 0.194, read-out: LUCIFERASE INFECTION ASSAY - IC50): > 10 µM | IC90: > 10 µM

CCOc1ccc(CN(C)c2cc(-c3ccccc3)c3ccccc3n2)cc1OC
IC50 [1]: > 10 µM | IC90: > 10 µM

Clc1ccc(CN2CCN(c3ncnc4sccc34)CC2)s1
IC50 (HEPG2TOX_HILL_SLOPE 8.99, HEPG2TOX_R_SQUARED 0.725, PBLUC_HILL_SLOPE 4.78, PBLUC_R_SQUARED 0.254, read-out: LUCIFERASE INFECTION ASSAY - IC50): 8.3 µM | IC90: > 10 µM

CCCCCc1ccc(-c2nnc(SCC(=O)c3ccccc3)[nH]2)cc1
IC50 (PBLUC_HILL_SLOPE 2.65, PBLUC_R_SQUARED 0.501, read-out: LUCIFERASE INFECTION ASSAY - IC50): > 9.03 µM | IC90: > 9.03 µM

COc1cc(OC)c(C(=O)/C=C/c2cccc(C#N)c2)cc1Cl
IC50 (HEPG2TOX_HILL_SLOPE 2.22, HEPG2TOX_R_SQUARED 0.565, PBLUC_HILL_SLOPE 10.9, PBLUC_R_SQUARED 0.489, read-out: LUCIFERASE INFECTION ASSAY - IC50): 3.33 µM | IC90: 4.08 µM

CCN(CC)S(=O)(=O)c1ccc(-c2ccc(C3NC(N)=Nc4nc5ccccc5n43)o2)cc1 (centres undefined)
IC50 [1]: > 10 µM | IC90: > 10 µM

CN(C1CCCCC1)S(=O)(=O)c1cccc(C(=O)Nc2ccc(S(=O)(=O)NCc3ccco3)cc2)c1
IC50 (HEPG2TOX_HILL_SLOPE 1.16, HEPG2TOX_R_SQUARED 0.836, PBLUC_HILL_SLOPE 2.1, PBLUC_R_SQUARED 0.409, read-out: LUCIFERASE INFECTION ASSAY - IC50): 0.606 µM | IC90: 1.72 µM

O=C(Nc1ccc(Oc2ccc(OC(F)(F)F)cc2)cc1)C1CC1
IC50 (PBLUC_HILL_SLOPE 2.12, PBLUC_R_SQUARED 0.759, read-out: LUCIFERASE INFECTION ASSAY - IC50): 0.548 µM | IC90: 1.54 µM

O=C(COC(=O)c1cc(-c2ccccc2)c(N2CCOCC2)s1)NCc1cccs1
IC50 (HEPG2TOX_HILL_SLOPE 2.63, HEPG2TOX_R_SQUARED 0.904, PBLUC_HILL_SLOPE 1.69, PBLUC_R_SQUARED 0.47, read-out: LUCIFERASE INFECTION ASSAY - IC50): 2 µM | IC90: 7.35 µM

c1nc(NCc2ccc(CN3CCOCC3)cc2)c2sccc2n1
IC50 (HEPG2TOX_HILL_SLOPE 1.44, HEPG2TOX_R_SQUARED 0.736, PBLUC_HILL_SLOPE 1.22, PBLUC_R_SQUARED 0.605, read-out: LUCIFERASE INFECTION ASSAY - IC50): 2.88 µM | IC90: > 10 µM

CC(C)(C)c1ccc(NC(=O)NCCSCc2ccco2)cc1
IC50 [1]: > 9.93 µM | IC90: > 9.93 µM
